{
  "source": "patent US20230145729A1",
  "about": "“INDOLE DITERPENE BIOSYNTHESIS” (priority 2020, published 2023)",
  "key": {"mice (Swiss, female) [1]": {"test_system": "mice (Swiss, female)", "test": "Mouse tremor bioassay of purified epoxy-janthitrems (Example 7)", "type": "in vivo", "conditions": "ip; for peak tremor score (comparison among epoxy-janthitrems): EJ I 13.5, EJ III 17.2, EJ triol 16.2 mg/kg", "description": "Epoxy-janthitrem I, Epoxy-janthitrem II, Epoxy-janthitrem III, Epoxy-janthitrem IV, and Epoxy-janthitriol, were administered by intraperitoneal injection as DMSO/water solutions (9:1, 50 μL) into mice (Swiss, female, weight 25+3g). Control mice were injected with the solvent alone (data not shown). Groups of four mice were used for each treatment group. All animal manipulations were approved, and tremor score was calculated, as described above in Example 5.\nThe dosage rates were informed by the experiment described in Example 5 above, with dose rates as follows: epoxy-janthitrem I (EJ I, 13.5 mg/kg), epoxy-janthitrem II (EJ II, 14.2 mg/kg), epoxy-janthitrem III (EJ III, 17.2 mg/kg), epoxy-janthitrem IV (EJ IV, 16.5 mg/kg), epoxy-janthitriol (EJ triol, 16.2 mg/kg). Tremors were measured regularly until the mice had completely recovered."}, "[2]": {"test_system": "Porina (Wiseana copularis) larvae", "test": "Porina bioassay of purified epoxy-janthitrems (Example 6)", "type": "in vivo", "conditions": "for inhibition of feeding at the highest concentration: highest concentration (10 μg/g wet weight); for Mortality of larvae: data not shown; for average diet consumption with increasing concentration: 1, 2.5, 10 μg/g wet weight, 21 days", "description": "The porina bioassay was carried out as described in Example 4, with the following variations:\n15 replicates were used per treatment;\nthe age of the larvae at the start of the experiment was 10 weeks;\ndiet was made weekly and replaced after 4 days within each week;\nthe average weight of diet consumed by the larvae, larval weight gain/loss (data not shown), and larval mortality (data not shown) was determined;\nthree concentrations of purified epoxy-janthitrems were used (1, 2.5, 10 μg/g wet weight) instead of four; and\nan average daily diet consumption (mg/larva) across the 21 days of the trial was determined."}, "[3]": {"test_system": "Porina (Wiseana cervinata) larvae", "test": "Porina bioassay of purified epoxy-janthitrem I in semi-synthetic diet (Example 4)", "type": "in vivo", "description": "Six week-old porina (W. cervinata) larvae reared from eggs (Popay, 2001) were starved overnight and then weighed individually. Larvae were assigned to replicates so that all larvae within a replicate were of a similar weight but randomised amongst treatments. The 20 replicate larvae per treatment were each placed in specimen containers (75 mL) half filled with commercially available fine bark chips.\n(§1) An agar-based semi-synthetic diet (Popay, 2001) without antimicrobials was prepared and epoxy-janthitrem I dissolved in 100 μL DMSO was added to 10 g of diet. Four concentrations of epoxy-janthitrem I were prepared (1, 2.5, 5, 10 μg/g wet weight) along with a DMSO control. Discs of diet (7 mm diam.) were taken and placed on top of the bark and the lids were replaced. The experiment was kept in the dark at 15° C. After 24 h, each diet was visually scored for feeding on a scale of 0-10 where 0=no feeding and 10=all diet consumed. The amount of webbing present was also scored on a scale of 0-5. The diet disc was replaced daily with fresh diet for 7 days. Each time diet was replaced, samples of the diet that the porina had fed on were taken as well as a sample of the fresh diet to analyse for epoxy-janthitrem I. Porina were reweighed at the completion of the trial.\nThe feeding score data were normalised by square root transformation before a repeated measures analysis was carried out using REML with treatment and date as factors. The daily webbing score and weight change of larvae over 7 days were analysed using ANOVA, blocked by replicate, to make pairwise comparisons for each concentration with the solvent control at each date."}, "[4]": {"test": "Analysis of porina diets for epoxy-janthitrem I (stability in diet)", "type": "physicochemical", "conditions": "average", "description": "as §1"}, "mice (Swiss, female) [5]": {"test_system": "mice (Swiss, female)", "test": "Mouse tremor bioassay (Example 5)", "type": "in vivo", "description": "Epoxy-janthitrem I, lolitrem B, and the related indole-diterpene, paxilline were administered by intraperitoneal injection as DMSO/water solutions (9:1, 50 μL) into mice (Swiss, female, weight 25+3 g). Control mice were injected with the solvent alone. Dose rates which induce an acceptable maximum tremor response are well established for lolitrem B (2 mg/kg; Gallagher and Hawkes, 1986) and paxilline (6 mg/kg; Miles, et al., 1992).\nGroups of four mice were used for each treatment group. All animal manipulations were approved by the\nAgResearch Ruakura (Hamilton) Animal Ethics Committee established under the Animal Protection (code of ethical conduct) Regulations Act, 1987 (New Zealand). Tremor score was rated 1-5 on the basis of a visual rating scale using well established protocols (Gallagher and Hawkes, 1985; Gallagher and Hawkes, 1986). Tremors were measured regularly until the mice had completely recovered."}},
  "data": [
    {"smiles": "CC(C)=CCOC(C)(C)C1OC2CC[C@]3(C)[C@@]4(C)c5[nH]c6cc7c(cc6c5CC4CC[C@@]3(O)C23O[C@H]3[C@@H]1O)CC1C7=CC(C)(C)OC1(C)C", "note": "(stereo partly drawn) [epoxy-janthitrem III]", "values": [
      {"measurement": "peak tremor score (comparison among epoxy-janthitrems)", "setting": "mice (Swiss, female) [1]", "result": "lowest peak tremor scores"},
      {"measurement": "inhibition of feeding at the highest concentration", "setting": "[2]", "result": "little inhibition of feeding"}
    ]},
    {"smiles": "CC(C)=CC1O[C@@H]2C(OC3CC[C@]4(C)[C@@]5(C)c6[nH]c7cc8c(cc7c6CC5CC[C@@]4(O)C34O[C@@H]24)CC2C8=CC(C)(C)OC2(C)C)C(C)(C)O1", "note": "(stereo partly drawn) [epoxy-janthitrem II]", "values": [
      {"measurement": "time of peak tremorgenicity", "setting": "mice (Swiss, female) [1]; EJ I 13.5, EJ II 14.2, EJ III 17.2, EJ IV 16.5, EJ triol 16.2 mg/kg", "result": 9, "unit": "hours post administration"},
      {"measurement": "Weight change of larvae", "setting": "[2]; 2.5 μg/g", "result": "net weigt loss"},
      {"measurement": "Mortality of larvae", "setting": "[2]; 2.5 μg/g", "result": "high"},
      {"measurement": "Mortality of larvae", "setting": "[2]; 10 μg/g", "result": "high"},
      {"measurement": "average diet consumption with increasing concentration", "setting": "[2]", "result": "decreased with increasing epoxy-janthitrem concentration"}
    ]},
    {"smiles": "CC(=O)O[C@@H]1C(C(C)(C)OCC=C(C)C)OC2CC[C@]3(C)[C@@]4(C)c5[nH]c6cc7c(cc6c5CC4CC[C@@]3(O)C23O[C@@H]13)CC1C7=CC(C)(C)OC1(C)C", "note": "(stereo partly drawn) [epoxy-janthitrem IV]", "values": [
      {"measurement": "inhibition of feeding at the highest concentration", "setting": "[2]", "result": "little inhibition of feeding"}
    ]},
    {"smiles": "CC(=O)O[C@@H]1C(C(C)(C)O)OC2CC[C@]3(C)[C@@]4(C)c5[nH]c6cc7c(cc6c5CC4CC[C@@]3(O)C23O[C@@H]13)CC1C7=CC(C)(C)OC1(C)C", "note": "(stereo partly drawn) [epoxy-janthitrem I]", "values": [
      {"measurement": "Weight change of larvae", "setting": "[3]; 1-10 ppm in diet, 7 days", "result": "continued to decline with increasing concentration"},
      {"measurement": "% gain in weight", "setting": "[3]; 1 ppm in diet, P<0.05 vs solvent control", "result": 51.1, "unit": "%"},
      {"measurement": "feeding score vs solvent control", "setting": "[3]; 1 ppm in diet, apart from the first day", "result": "did not differ significantly from the solvent control"},
      {"measurement": "feeding score vs solvent control", "setting": "[3]; 2.5 ppm in diet", "result": "consistent reduction in feeding score for the first 6 days"},
      {"measurement": "feeding score vs solvent control", "setting": "[3]; 5 ppm in diet, entire period of the bioassay", "result": "feeding was strongly inhibited"},
      {"measurement": "feeding score vs solvent control", "setting": "[3]; 10 ppm in diet, entire period of the bioassay", "result": "feeding was strongly inhibited"},
      {"measurement": "Weight gain of larvae relative to the solvent control", "setting": "[3]; all concentrations except 1 ppm", "result": "significantly reduced"},
      {"measurement": "in planta concentration that will reliably reduce larval feeding", "setting": "[3]; extrapolated from dry weight of diet (about ten times wet weight concentrations)", "result": "≥ 25", "unit": "ppm"},
      {"measurement": "Survival of larvae during the experiment", "setting": "[3]; treatments containing epoxy-janthitrem I (1, 2.5, 5, 10 μg/g wet weight), 7 days", "result": 100, "unit": "%"},
      {"measurement": "concentration of epoxy-janthitrem I in diet relative to expected", "setting": "[4]; analysed at time zero", "result": 98, "unit": "%"},
      {"measurement": "epoxy-janthitrem I remaining in diet, % of the starting concentration", "setting": "[4]; diets after 24 h", "result": 81, "unit": "%"},
      {"measurement": "peak tremor score (comparison among epoxy-janthitrems)", "setting": "mice (Swiss, female) [1]", "result": "significantly greater than that observed for any of the other epoxy-janthitrems"},
      {"measurement": "Weight change of larvae", "setting": "[2]; 2.5 μg/g", "result": "net weigt loss"},
      {"measurement": "Mortality of larvae", "setting": "[2]; 2.5 μg/g", "result": "high"},
      {"measurement": "Mortality of larvae", "setting": "[2]; 10 μg/g", "result": "high"},
      {"measurement": "average diet consumption with increasing concentration", "setting": "[2]", "result": "decreased with increasing epoxy-janthitrem concentration"},
      {"measurement": "effect on consumption at the lowest dose", "setting": "[2]; lowest dose (1 μg/g wet weight)", "result": "substantial inhibitory effect"},
      {"measurement": "tremor response", "setting": "mice (Swiss, female) [5]; 8 mg/kg intraperitoneal", "result": "only a low tremor response"}
    ]},
    {"smiles": "CC1(C)C=C2c3cc4[nH]c5c(c4cc3CC2C(C)(C)O1)CC1CC[C@@]2(O)C34O[C@H]3[C@H](O)C(C(C)(C)O)OC4CC[C@]2(C)[C@@]51C", "note": "(stereo partly drawn) [epoxy-janthitriol]", "values": [
      {"measurement": "peak tremor score (comparison among epoxy-janthitrems)", "setting": "mice (Swiss, female) [1]", "result": "lowest peak tremor scores"},
      {"measurement": "average diet consumption with increasing concentration", "setting": "[2]", "result": "decreased with increasing epoxy-janthitrem concentration"}
    ]},
    {"smiles": "CC(C)(O)C1OC2CC[C@@]3(C)[C@@](O)(CCC4Cc5c([nH]c6ccccc56)[C@@]43C)C2=CC1=O", "note": "(stereo partly drawn) [paxilline, Paxilline]", "values": [
      {"measurement": "time of tremor peak", "setting": "mice (Swiss, female) [5]; ip, paxilline 6 mg/kg", "result": 30, "unit": "mins post-dosing"},
      {"measurement": "time to complete recovery", "setting": "mice (Swiss, female) [5]; ip, paxilline 6 mg/kg", "result": "≤ 6", "unit": "hours post-dosing"}
    ]}
  ]
}
